In patent US8871753B2, “Macrocyclic compounds and their use as kinase inhibitors” (Incyte Corporation, priority 2008, dated 2014):

Tests used:
Type in all cases: biochemical
[1] = target: T1, human JAK1 (a.a. 837-1142) (Homo sapiens, UniProt P23458); assay: In vitro JAK kinase assay (HTRF, phosphorylation of a biotinylated peptide), JAK1; conditions: Table B1; read-out: JAK1 IC50
T1 construct: human JAK1 (a.a. 837-1142); His tag (N); made in house; host or cells: insect cells (baculovirus)
Procedure, shortened: (§1)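 Kinase reactions ran at room temperature for 1 h with ATP matched per isoform (JAK1 90 μM, JAK2 30 μM, JAK3 3 μM). After an EDTA stop, the phosphorylated biotin-peptide was read by HTRF using Eu-Py20 and SA-APC after 40 min binding.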

[2] = target: T2, human JAK2 (a.a. 828-1132) (Homo sapiens, UniProt O60674); assay: In vitro JAK kinase assay (HTRF, phosphorylation of a biotinylated peptide), JAK2; conditions: Table B1
T2 construct: JAK2 (a.a. 828-1132); His tag (N); made in house; host or cells: insect cells (baculovirus)
Procedure, shortened: as §1

[3] = target: T3, human JAK3 (a.a. 781-1124) (Homo sapiens, UniProt P52333); assay: In vitro JAK kinase assay (HTRF, phosphorylation of a biotinylated peptide), JAK3; conditions: Table B1
T3 construct: JAK3 (a.a. 781-1124); His tag (N); made in house; host or cells: insect cells (baculovirus)
Procedure, shortened: as §1

TYK2 = TYK2 (Homo sapiens, UniProt P29597); assay: TYK2 kinase inhibition (Table A1); conditions: Table B1
[4] = target: T4, Recombinant Human Anaplastic Lymphoma Kinase (Homo sapiens, UniProt Q9UM73); assay: ALK HTRF kinase assay
T4 construct: purchased Invitrogen, Carlsbad, Calif
Procedure, shortened: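 Recombinant human ALK phosphorylated a biotinylated synthetic peptide. Phosphotyrosine was detected by TR-FRET between a Eu-labelled anti-phosphotyrosine antibody and streptavidin-allophycocyanin. IC50 values came from fitting signal against inhibitor concentration to a four-parameter logistic equation with variable Hill slope.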

[5] = compound at a concentration of 500 nM or 1 mM (not specified), cells shown as percentage
[6] = percentage inhibition of the example compound at a concentration of 500 nM or 1 mM (not specified which)

T4 sequence (Q9UM73 19-1620): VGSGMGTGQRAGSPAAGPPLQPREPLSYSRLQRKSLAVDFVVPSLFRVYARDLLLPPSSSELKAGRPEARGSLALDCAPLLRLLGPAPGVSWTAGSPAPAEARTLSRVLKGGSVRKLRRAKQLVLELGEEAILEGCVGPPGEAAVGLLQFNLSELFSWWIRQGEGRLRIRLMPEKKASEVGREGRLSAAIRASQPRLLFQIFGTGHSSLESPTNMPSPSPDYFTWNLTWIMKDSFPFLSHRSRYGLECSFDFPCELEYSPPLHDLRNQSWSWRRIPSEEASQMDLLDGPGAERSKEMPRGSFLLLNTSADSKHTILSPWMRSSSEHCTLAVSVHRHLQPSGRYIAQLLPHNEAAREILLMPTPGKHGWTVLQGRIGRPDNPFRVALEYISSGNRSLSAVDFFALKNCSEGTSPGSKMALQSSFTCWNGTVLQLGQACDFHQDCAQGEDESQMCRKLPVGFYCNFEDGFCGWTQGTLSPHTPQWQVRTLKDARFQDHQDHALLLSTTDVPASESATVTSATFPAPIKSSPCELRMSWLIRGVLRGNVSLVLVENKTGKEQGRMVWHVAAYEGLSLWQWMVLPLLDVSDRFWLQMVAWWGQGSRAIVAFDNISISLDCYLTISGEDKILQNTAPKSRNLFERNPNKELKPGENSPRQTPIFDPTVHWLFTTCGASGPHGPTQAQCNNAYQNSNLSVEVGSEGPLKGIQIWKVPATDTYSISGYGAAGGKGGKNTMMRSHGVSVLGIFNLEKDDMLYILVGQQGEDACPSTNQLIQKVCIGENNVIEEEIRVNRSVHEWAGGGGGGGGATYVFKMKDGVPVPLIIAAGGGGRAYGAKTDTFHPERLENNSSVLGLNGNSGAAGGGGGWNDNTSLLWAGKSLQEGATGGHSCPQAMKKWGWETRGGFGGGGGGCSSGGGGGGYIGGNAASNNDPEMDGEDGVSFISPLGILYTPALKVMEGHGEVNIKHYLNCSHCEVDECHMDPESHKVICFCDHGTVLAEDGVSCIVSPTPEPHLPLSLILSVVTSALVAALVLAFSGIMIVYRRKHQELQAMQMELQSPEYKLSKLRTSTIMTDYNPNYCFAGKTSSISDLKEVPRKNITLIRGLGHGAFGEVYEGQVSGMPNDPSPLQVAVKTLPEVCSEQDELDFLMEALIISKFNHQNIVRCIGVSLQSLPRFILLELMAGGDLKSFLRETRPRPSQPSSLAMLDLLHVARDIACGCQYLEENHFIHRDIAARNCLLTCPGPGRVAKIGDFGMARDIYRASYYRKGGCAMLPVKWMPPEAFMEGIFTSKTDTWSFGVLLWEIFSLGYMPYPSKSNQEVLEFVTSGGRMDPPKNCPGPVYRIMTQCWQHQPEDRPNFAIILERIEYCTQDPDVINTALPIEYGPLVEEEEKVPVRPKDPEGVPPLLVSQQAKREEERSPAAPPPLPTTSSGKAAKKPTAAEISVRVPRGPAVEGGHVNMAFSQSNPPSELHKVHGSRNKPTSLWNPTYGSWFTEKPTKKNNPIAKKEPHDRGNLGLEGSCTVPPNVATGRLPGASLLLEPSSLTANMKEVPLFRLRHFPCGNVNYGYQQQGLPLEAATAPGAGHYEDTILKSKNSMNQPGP
T3 sequence (P52333 781-1124): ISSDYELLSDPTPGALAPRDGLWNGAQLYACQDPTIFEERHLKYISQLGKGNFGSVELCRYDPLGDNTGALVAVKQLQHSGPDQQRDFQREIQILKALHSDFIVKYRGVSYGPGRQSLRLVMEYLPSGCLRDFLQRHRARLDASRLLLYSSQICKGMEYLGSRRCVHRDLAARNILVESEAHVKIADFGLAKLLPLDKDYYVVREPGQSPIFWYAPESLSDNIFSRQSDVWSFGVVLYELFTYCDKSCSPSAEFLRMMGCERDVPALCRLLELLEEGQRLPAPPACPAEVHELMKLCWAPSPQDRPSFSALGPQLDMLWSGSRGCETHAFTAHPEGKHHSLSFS
T1 sequence (P23458 849-1154): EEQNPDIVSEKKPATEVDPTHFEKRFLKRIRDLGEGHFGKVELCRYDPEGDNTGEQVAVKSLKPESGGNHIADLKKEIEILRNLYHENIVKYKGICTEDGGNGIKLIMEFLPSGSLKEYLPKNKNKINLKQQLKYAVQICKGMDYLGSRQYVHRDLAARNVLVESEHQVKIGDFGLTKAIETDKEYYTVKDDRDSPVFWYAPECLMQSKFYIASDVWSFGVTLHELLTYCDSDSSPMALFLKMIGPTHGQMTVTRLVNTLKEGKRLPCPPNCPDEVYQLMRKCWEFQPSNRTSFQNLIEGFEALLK
Sequence of TYK2 (P29597 whole entry): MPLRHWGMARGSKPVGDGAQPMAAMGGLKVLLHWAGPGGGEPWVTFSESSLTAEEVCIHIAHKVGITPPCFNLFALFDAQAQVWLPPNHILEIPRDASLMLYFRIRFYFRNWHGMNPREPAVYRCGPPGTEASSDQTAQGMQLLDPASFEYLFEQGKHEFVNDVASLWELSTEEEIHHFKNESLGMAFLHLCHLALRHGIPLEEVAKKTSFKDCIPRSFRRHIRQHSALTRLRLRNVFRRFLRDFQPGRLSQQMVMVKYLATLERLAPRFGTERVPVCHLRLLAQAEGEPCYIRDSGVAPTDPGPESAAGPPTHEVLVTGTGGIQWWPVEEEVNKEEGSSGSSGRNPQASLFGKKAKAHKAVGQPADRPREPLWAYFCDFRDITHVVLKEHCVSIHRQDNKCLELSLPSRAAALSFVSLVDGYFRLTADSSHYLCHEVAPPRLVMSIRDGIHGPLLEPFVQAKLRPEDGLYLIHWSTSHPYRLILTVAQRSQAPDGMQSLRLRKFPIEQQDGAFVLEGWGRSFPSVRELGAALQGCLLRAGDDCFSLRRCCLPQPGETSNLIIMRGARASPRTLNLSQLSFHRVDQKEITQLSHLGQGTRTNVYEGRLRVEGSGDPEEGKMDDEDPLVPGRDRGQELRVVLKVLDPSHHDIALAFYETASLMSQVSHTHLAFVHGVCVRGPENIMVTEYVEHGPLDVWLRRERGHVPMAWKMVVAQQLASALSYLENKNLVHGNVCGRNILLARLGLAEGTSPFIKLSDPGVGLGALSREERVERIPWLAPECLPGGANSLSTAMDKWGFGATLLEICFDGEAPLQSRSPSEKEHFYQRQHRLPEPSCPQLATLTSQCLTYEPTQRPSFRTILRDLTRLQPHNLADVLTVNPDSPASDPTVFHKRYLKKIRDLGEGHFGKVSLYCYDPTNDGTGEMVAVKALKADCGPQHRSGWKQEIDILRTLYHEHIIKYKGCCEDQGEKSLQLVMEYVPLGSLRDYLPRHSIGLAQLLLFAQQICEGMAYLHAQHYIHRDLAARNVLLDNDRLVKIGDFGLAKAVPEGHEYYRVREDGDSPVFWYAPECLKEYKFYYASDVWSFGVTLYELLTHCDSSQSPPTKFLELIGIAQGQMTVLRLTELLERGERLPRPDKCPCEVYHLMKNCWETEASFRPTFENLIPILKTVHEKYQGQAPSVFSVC
T2 sequence (O60674 828-1132): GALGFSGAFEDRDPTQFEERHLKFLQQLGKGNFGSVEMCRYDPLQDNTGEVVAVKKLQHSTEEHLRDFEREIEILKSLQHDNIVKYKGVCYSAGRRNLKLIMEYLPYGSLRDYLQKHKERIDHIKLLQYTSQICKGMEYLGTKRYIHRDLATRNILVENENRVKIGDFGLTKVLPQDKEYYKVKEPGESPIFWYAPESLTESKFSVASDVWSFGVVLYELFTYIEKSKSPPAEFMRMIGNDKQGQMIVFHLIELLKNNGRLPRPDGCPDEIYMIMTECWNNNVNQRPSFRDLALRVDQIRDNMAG

Row | Compound | IC50 [1] [nM] | IC50 [2] [nM] | IC50 [3] [nM] | IC50 (TYK2) [nM] | ALK % of inhibition at a concentration of 500 nM or 1 mM [4, 5] [%] | ALK % of inhibition at a concentration of 500 nM or 1 mM [4, 6] [%]
1 | N#Cc1ccccc1N1CCN(C(=O)Nc2ccc3cc2CCc2cncc(c2)Nc2ncc(Cl)c(n2)N3)CC1 [Example B300, N-[6-Chloro-2,4,8,18,22-pentaazatetracyclo[14.3.1.1(3,7).1(9,13)]docosa-1(20),3(22),4,6,9(21),10,12,16,18-nonaen-12-yl]-4-(2-cyanophenyl)piperazine-1-carboxamide tris(trifluoroacetate)] | 16 | 160 | > 400 | 27 | 77 | –
2 | O=C(Nc1ccc2cc1CCc1cncc(c1)Nc1ncc(Cl)c(n1)N2)N1CCN(c2ccc(C(F)(F)F)cn2)CC1 [Example B301, N-[6-Chloro-2,4,8,18,22-pentaazatetracyclo[14.3.1.1(3,7).1(9,13)]docosa-1(20),3(22),4,6,9(21),10,12,16,18-nonaen-12-yl]-4-[5-(trifluoromethyl)pyridin-2-yl]piperazine-1-carboxamide tris(trifluoroacetate)] | 35 | > 400 | > 400 | 75 | 58 | –
3 | N#Cc1ccc(N2CCN(C(=O)Nc3ccc4cc3CCc3cncc(c3)Nc3ncc(Cl)c(n3)N4)CC2)cc1 [Example B303, N-[6-Chloro-2,4,8,18,22-pentaazatetracyclo[14.3.1.1(3,7).1(9,13)]docosa-1(20),3(22),4,6,9(21),10,12,16,18-nonaen-12-yl]-4-(4-cyanophenyl)piperazine-1-carboxamide tris(trifluoroacetate)] | 19 | 161 | > 400 | 36 | – | 81
4 | COc1cccc(N2CCN(C(=O)Nc3ccc4cc3CCc3cncc(c3)Nc3ncc(Cl)c(n3)N4)CC2)c1 [Example B304, N-[6-Chloro-2,4,8,18,22-pentaazatetracyclo[14.3.1.1(3,7).1(9,13)]docosa-1(20),3(22),4,6,9(21),10,12,16,18-nonaen-12-yl]-4-(3-methoxyphenyl)piperazine-1-carboxamide tris(trifluoroacetate)] | 58 | 300 | > 400 | 90 | – | 67
5 | O=C(Nc1ccc2cc1CCc1cncc(c1)Nc1ncc(Cl)c(n1)N2)N1CCN(c2ccccc2Cl)CC1 [Example B305, N-[6-Chloro-2,4,8,18,22-pentaazatetracyclo[14.3.1.1(3,7).1(9,13)]docosa-1(20),3(22),4,6,9(21),10,12,16,18-nonaen-12-yl]-4-(2-chlorophenyl)piperazine-1-carboxamide bis(trifluoroacetate)] | 15 | 148 | > 400 | 38 | – | 79
6 | O=C(Nc1ccc2cc1CCc1cncc(c1)Nc1ncc(Cl)c(n1)N2)N1CCN(c2cccc(Cl)c2)CC1 [Example B306, N-[6-Chloro-2,4,8,18,22-pentaazatetracyclo[14.3.1.1(3,7).1(9,13)]docosa-1(20),3(22),4,6,9(21),10,12,16,18-nonaen-12-yl]-4-(3-chlorophenyl)piperazine-1-carboxamide tris(trifluoroacetate)] | 27 | 265 | > 400 | 43 | – | 72
7 | O=C(Nc1ccc2cc1CCc1cncc(c1)Nc1ncc(Cl)c(n1)N2)N1CCN(c2ccc(Cl)cc2)CC1 [Example B307, N-[6-Chloro-2,4,8,18,22-pentaazatetracyclo[14.3.1.1(3,7).1(9,13)]docosa-1(20),3(22),4,6,9(21),10,12,16,18-nonaen-12-yl]-4-(4-chlorophenyl)piperazine-1-carboxamide tris(trifluoroacetate)] | 36 | 217 | > 400 | 66 | – | 74

Now from value to compound:

Row | IC50 [1] [nM] | IC50 [2] [nM] | IC50 [3] [nM] | IC50 (TYK2) [nM] | ALK % of inhibition at a concentration of 500 nM or 1 mM [4, 5] [%] | ALK % of inhibition at a concentration of 500 nM or 1 mM [4, 6] [%] | Compound
8 | 16 | 83 | > 400 | 34 | – | 79 | Cc1cncc(N2CCN(C(=O)Nc3ccc4cc3CCc3cncc(c3)Nc3ncc(Cl)c(n3)N4)CC2)n1 [Example B308, N-[6-Chloro-2,4,8,18,22-pentaazatetracyclo[14.3.1.1(3,7).1(9,13)]docosa-1(20),3(22),4,6,9(21),10,12,16,18-nonaen-12-yl]-4-(6-methylpyrazin-2-yl)piperazine-1-carboxamide tris(trifluoroacetate)]
9 | 21 | 133 | > 400 | 67 | – | 68 | O=C(Nc1ccc2cc1CCc1cncc(c1)Nc1ncc(Cl)c(n1)N2)N1CCN(c2ncccn2)CC1 [Example B309, N-[6-Chloro-2,4,8,18,22-pentaazatetracyclo[14.3.1.1(3,7).1(9,13)]docosa-1(20),3(22),4,6,9(21),10,12,16,18-nonaen-12-yl]-4-pyrimidin-2-ylpiperazine-1-carboxamide tris(trifluoroacetate)]
10 | 24 | 61 | > 400 | 44 | – | 74 | N#Cc1ccc(N2CCN(C(=O)Nc3ccc4cc3CCc3cncc(c3)Nc3ncc(Cl)c(n3)N4)CC2)nc1 [Example B310, N-[6-Chloro-2,4,8,18,22-pentaazatetracyclo[14.3.1.1(3,7).1(9,13)]docosa-1(20),3(22),4,6,9(21),10,12,16,18-nonaen-12-yl]-4-(5-cyanopyridin-2-yl)piperazine-1-carboxamide tris(trifluoroacetate)]
11 | 20 | 170 | > 400 | 146 | – | 67 | N#Cc1cccnc1N1CCN(C(=O)Nc2ccc3cc2CCc2cncc(c2)Nc2ncc(Cl)c(n2)N3)CC1 [Example B311, N-[6-Chloro-2,4,8,18,22-pentaazatetracyclo[14.3.1.1(3,7).1(9,13)]docosa-1(20),3(22),4,6,9(21),10,12,16,18-nonaen-12-yl]-4-(3-cyanopyridin-2-yl)piperazine-1-carboxamide tris(trifluoroacetate)]
12 | 5 | 70 | > 400 | 42 | – | 40 | O=C(Nc1ccc2cc1CCc1cncc(c1)Nc1ncc(Cl)c(n1)N2)N1CCC(c2ccccc2)C1 (centres unmarked) [Example B312, N-[6-Chloro-2,4,8,18,22-pentaazatetracyclo[14.3.1.1(3,7).1(9,13)]docosa-1(20),3(22),4,6,9(21),10,12,16,18-nonaen-12-yl]-3-phenylpyrrolidine-1-carboxamide bis(trifluoroacetate)]
13 | 48 | 371 | > 400 | > 400 | – | 20 | O=C(Nc1ccc2cc1CCc1cncc(c1)Nc1ncc(Cl)c(n1)N2)N1CCC(c2cnccn2)C1 (centres unmarked) [Example B313, N-[6-Chloro-2,4,8,18,22-pentaazatetracyclo[14.3.1.1(3,7).1(9,13)]docosa-1(20),3(22),4,6,9(21),10,12,16,18-nonaen-12-yl]-3-pyrazin-2-ylpyrrolidine-1-carboxamide tetrakis(trifluoroacetate)]
14 | 28 | 108 | > 400 | 67 | – | 69 | O=C(Nc1ccc2cc1CCc1cncc(c1)Nc1ncc(Cl)c(n1)N2)N1CCC(c2ccccc2)CC1 [Example B314, N-[6-Chloro-2,4,8,18,22-pentaazatetracyclo[14.3.1.1(3,7).1(9,13)]docosa-1(20),3(22),4,6,9(21),10,12,16,18-nonaen-12-yl]-4-phenylpiperidine-1-carboxamide bis(trifluoroacetate)]
15 | 47 | > 400 | > 400 | 235 | – | 50 | O=C(Nc1ccc2cc1CCc1cncc(c1)Nc1ncc(Cl)c(n1)N2)N1CCN2CCCC2C1 (centres unmarked) [Example B315, N-[6-Chloro-2,4,8,18,22-pentaazatetracyclo[14.3.1.1(3,7).1(9,13)]docosa-1(20),3(22),4,6,9(21),10,12,16,18-nonaen-12-yl]hexahydropyrrolo[1,2-a]pyrazine-2(1H)-carboxamide tris(trifluoroacetate)]
16 | 16 | 180 | > 400 | 208 | – | 64 | O=C(Nc1ccc2cc1CCc1cncc(c1)Nc1ncc(Cl)c(n1)N2)N1CCn2c(nnc2C(F)(F)F)C1 [Example B316, N-[6-Chloro-2,4,8,18,22-pentaazatetracyclo[14.3.1.1(3,7).1(9,13)]docosa-1(20),3(22),4,6,9(21),10,12,16,18-nonaen-12-yl]-3-(trifluoromethyl)-5,6-dihydro[1,2,4]triazolo[4,3-a]pyrazine-7(8H)-carboxamide tris(trifluoroacetate)]
